By IC50 is commonly meant the concentration needed to halve the response being measured.

Test [1] concerns the target T1, BTK (Homo sapiens, UniProt Q06187).
T1 construct: purchased Upstate 14-552
Briefly: In Vitro BTK Kinase Assay: Btk-PolyGAT-LS Assay. In kind it is biochemical. To be noted: active BTK enzyme 0.25 nM, fluorescein-labeled polyGAT peptide 100 nM, 30 minutes incubation, TRF readout; read-out: In Vitro BTK Kinase Assay IC50 Score. The protocol: The purpose of the BTK in vitro assay is to determine compound potency against BTK through the measurement of IC50. Compound inhibition is measured after monitoring the amount of phosphorylation of a fluorescein-labeled polyGAT peptide (Invitrogen PV3611) in the presence of active BTK enzyme (Upstate 14-552), ATP, and inhibitor. The BTK kinase reaction was done in a black 96 well plate (costar 3694). For a typical assay, a 24 μL aliquot of a ATP/peptide master mix (final concentration; ATP […], polyGAT 100 nM) in kinase buffer (10 mM Tris-HCl pH 7.5, 10 mM MgCl2, 200 μM […], 5 mM DTT, 0.01% Triton X-100, and 0.2 mg/ml casein) is added to each well. Next, I uL of a 4-fold, 40× compound titration in 100% DMSO solvent is added, followed by adding […] of BTK enzyme mix in 1× kinase buffer (with a final concentration of 0.25 nM). The assay is incubated for 30 minutes before being stopped with […] of a 50 mM EDTA solution. Aliquots (5 uL) of the kinase reaction are transferred to a low volume white 384 well plate (Corning 3674), and […] of a 2× detection buffer (Invitrogen PV3574, with 4 nM Tb-PY20 antibody, Invitrogen PV3552) is added. The plate is covered and incubated for 45 minutes at room temperature. Time resolved fluorescence (TRF) on Molecular Devices M5 (332 nm excitation; 488 nm emission; 518 nm fluorescein emission) is measured. IC50 values are calculated using a four parameter fit with 100% enzyme activity determined from the DMSO control and 0% activity from the EDTA control.
“†” represents an IC50 of greater than 1 μM and equal to or less than 10 μM. “††” represents an IC50 of greater than 10 nM and equal to or less than 1 μM (10 nM<IC50≤1 μM). “†††” represents an IC50 of greater than 1 nM and equal to or less than 10 nM (1 nM<IC50≤10 nM). “††††” represents an IC50 of less than 1 nM.

In test [2] the test system is CD69 expression on CD19+ B cells in human whole blood. Briefly: In Vitro Whole Blood CD69 Assay. The note with it: B-cell; human heparinized whole blood, anti-human IgD stimulation, overnight (18 to 22 hours), percentage of CD19+ B cells expressing CD69, flow cytometry; read-out: In Vitro HWB CD69 Assay IC50 Score. It is filed as cell-based. Here is the method: Human heparinized venous blood from health donors was aliquoted into 96-well plate and “spiked” with serial dilutions of formula I compounds in DMSO or with DMSO without drug. The final concentration of DMSO in all wells was 0.1%. The plate was incubated at 37° C. for 30 min. Drug-containing samples were stimulated with […] mouse anti-human IgD-dextran (1A62) or 20 μg/mL polyclonal rabbit F(ab′)2 anti-human IgD.
Phosphate-buffered saline (PBS) was added to the negative control unstimulated sample and the plates were incubated overnight (18 to 22 hours) at 37° C. Cells were stained with fluorochrome-conjugated anti-CD19 and anti-CD69 antibodies. Lyse/fix solution was used to remove red blood cells by hypotonic lysis and to fix the remaining cells, which were then analyzed by flow cytometry. CD19+B cells were gated and analyzed for CD69 expression.
The percentage of B cells expressing CD69 was plotted versus the log 10 of the concentration of the drug and the best-fit curves (variable Hill slope) were generated to obtain the IC50 value.
“†” represents an IC50 of greater than 10 μM. “††” represents an IC50 of greater than 1 μM and equal to or less than 10 μM (1 μM<IC50≤10 μM). “†††” represents an IC50 of less than 1 μM.
(In flow cytometry, cells or beads pass a laser one at a time.)

T1 sequence (Q06187 whole entry): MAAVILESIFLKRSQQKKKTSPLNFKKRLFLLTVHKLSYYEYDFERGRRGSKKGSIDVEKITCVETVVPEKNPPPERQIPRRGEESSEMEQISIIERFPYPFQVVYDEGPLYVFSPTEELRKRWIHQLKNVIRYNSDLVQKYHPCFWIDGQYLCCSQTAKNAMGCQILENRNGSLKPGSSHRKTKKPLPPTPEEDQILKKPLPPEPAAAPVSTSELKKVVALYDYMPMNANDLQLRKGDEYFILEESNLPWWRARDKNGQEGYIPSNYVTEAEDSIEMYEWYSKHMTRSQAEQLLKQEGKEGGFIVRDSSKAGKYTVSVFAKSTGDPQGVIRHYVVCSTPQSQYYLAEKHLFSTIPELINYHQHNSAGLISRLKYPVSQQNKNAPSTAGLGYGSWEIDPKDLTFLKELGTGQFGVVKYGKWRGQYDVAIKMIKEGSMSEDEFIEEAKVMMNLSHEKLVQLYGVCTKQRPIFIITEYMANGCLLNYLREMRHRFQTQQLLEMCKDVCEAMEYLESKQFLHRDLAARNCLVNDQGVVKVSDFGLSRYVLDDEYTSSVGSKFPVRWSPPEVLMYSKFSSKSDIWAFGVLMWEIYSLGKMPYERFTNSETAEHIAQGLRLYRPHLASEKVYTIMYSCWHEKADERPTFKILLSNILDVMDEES

Take `C=CC(=O)N(C)[C@H]1CC[C@H](C(=O)c2nc(-c3cnn(C)c3)cn3nccc23)C1` (relative stereo) [Example 18, N-methyl-N-(3-(6-(1-methyl-1H-pyrazol-4-yl)pyrazolo[1,5-a]pyrazine-4-carbonyl)cyclopentyl)acrylamide]: the IC50 in test [1] and in test [2] was 1000 to 10000 nM throughout. On to `C=CC(=O)N1C[C@H]2C[C@@H](c3nc(-c4cnn(C)c4)cn4nccc34)C[C@H]2C1` (single isomer, unassigned) [Example 1], for which the results for the IC50 in test [1] and in test [2] were less than 1 nM and less than 1000 nM, respectively. In the same order, the values of `C=CC(=O)N(C)C1CCC(C(=O)c2nc(-c3cnn(C)c3)cn3nccc23)C1` (single isomer, unassigned) [Example 16, N-methyl-N-(3-(6-(1-methyl-1H-pyrazol-4-yl)pyrazolo[1,5-a]pyrazine-4-carbonyl)cyclopentyl)acrylamide] are 1 to 10 nM and 1000 to 10000 nM. On to `C=CC(=O)N(C)[C@@H]1CCC[C@@H](c2nc(-c3cnn(C)c3)cn3nccc23)C1` (single isomer, unassigned) [Example 24, trans-N-methyl-N-(3-(6-(1-methyl-1H-pyrazol-4-yl)pyrazolo[1,5-a]pyrazin-4-yl)cyclohexyl)acrylamide], for which the figures for the IC50 in test [1] and in test [2] were 10 to 1000 nM and 1000 to 10000 nM, respectively. Regarding `C=CC(=O)N(C)[C@H]1CCC[C@H](c2nc(-c3cnn(C)c3)cn3nccc23)C1` (single isomer, unassigned) [Example 25, trans-N-methyl-N-(3-(6-(1-methyl-1H-pyrazol-4-yl)pyrazolo[1,5-a]pyrazin-4-yl)cyclohexyl)acrylamide], the IC50 in test [1] lay in the range of 10 to 1000 nM; in test [2], 1000 to 10000 nM.

In the case of `C=CC(=O)N(C)[C@H]1CCC[C@@H](c2nc(-c3cnn(C)c3)cn3nccc23)C1` (single isomer, unassigned) [Example 26, cis-N-methyl-N-(3-(6-(1-methyl-1H-pyrazol-4-yl)pyrazolo[1,5-a]pyrazin-4-yl)cyclohexyl)acrylamide], the IC50 lay within 1 to 10 nM in test [1] and 1000 to 10000 nM in test [2]. In the same order, the values of `C=CC(=O)N(C)[C@@H]1CCC[C@H](c2nc(-c3cnn(C)c3)cn3nccc23)C1` (single isomer, unassigned) [Example 27, cis-N-methyl-N-(3-(6-(1-methyl-1H-pyrazol-4-yl)pyrazolo[1,5-a]pyrazin-4-yl)cyclohexyl)acrylamide] are 10 to 1000 nM and 1000 to 10000 nM. With `C=CC(=O)N1CCC[C@@H](Sc2nc(-c3cnn(C)c3)cn3nccc23)CC1` (single isomer, unassigned) [Example 30], the half-inhibitory concentration (IC50) in test [1] was in the range of 10 to 1000 nM. Still for that read-out and setting: the figure for `C=CC(=O)N1CCC[C@H](Sc2nc(-c3cnn(C)c3)cn3nccc23)CC1` (single isomer, unassigned) [Example 31] is 1000 to 10000 nM; for `C=CC(=O)N(C)[C@H]1CC[C@@H](C(=O)c2nc(-c3cnn(C)c3)cn3nccc23)C1` (stereo in doubt) [Example 17, N-methyl-N-(3-(6-(1-methyl-1H-pyrazol-4-yl)pyrazolo[1,5-a]pyrazine-4-carbonyl)cyclopentyl)acrylamide] it is 10 to 1000 nM. In the case of `C=CC(=O)N(C)[C@@H]1CC[C@H](C(=O)c2nc(-c3cnn(C)c3)cn3nccc23)C1` (stereo in doubt) [Example 19, N-methyl-N-(3-(6-(1-methyl-1H-pyrazol-4-yl)pyrazolo[1,5-a]pyrazine-4-carbonyl)cyclopentyl)acrylamide], the IC50 in test [1] was 1000 to 10000 nM; in test [2], less than 1000 nM. Regarding `C=CC(=O)N(C)C[C@H]1CC[C@H](c2nc(-c3cnn(C)c3)cn3nccc23)C1` (stereo in doubt) [Example 20, N-methyl-N-((3-(6-(1-methyl-1H-pyrazol-4-yl)pyrazolo[1,5-a]pyrazin-4-yl)cyclopentyl)methyl)acrylamide], the IC50 in test [1] was in the range of 10 to 1000 nM.

With `C=CC(=O)N(C)C[C@H]1CC[C@@H](c2nc(-c3cnn(C)c3)cn3nccc23)C1` (stereo in doubt) [Example 21, N-methyl-N-((3-(6-(1-methyl-1H-pyrazol-4-yl)pyrazolo[1,5-a]pyrazin-4-yl)cyclopentyl)methyl)acrylamide], in test [1], the IC50 fell in the range of 1 to 10 nM.

Regarding `C=CC(=O)N(C)C[C@@H]1CC[C@H](c2nc(-c3cnn(C)c3)cn3nccc23)C1` (stereo in doubt) [Example 22, N-methyl-N-((3-(6-(1-methyl-1H-pyrazol-4-yl)pyrazolo[1,5-a]pyrazin-4-yl)cyclopentyl)methyl)acrylamide], the IC50 in test [1] was in the range of 10 to 1000 nM.

In the case of `C=CC(=O)N(C)C[C@@H]1CC[C@@H](c2nc(-c3cnn(C)c3)cn3nccc23)C1` (stereo in doubt) [Example 23, N-methyl-N-((3-(6-(1-methyl-1H-pyrazol-4-yl)pyrazolo[1,5-a]pyrazin-4-yl)cyclopentyl)methyl)acrylamide], the IC50 in test [1] lay within 10 to 1000 nM. In the case of `C=CC(=O)N1C[C@H]2C[C@H](c3nc(-c4cnn(C)c4)cn4nccc34)C[C@H]2C1` [Example 2, 1-[(3aS,6aR)-5-[6-(1-methylpyrazol-4-yl)pyrazolo[1,5-a]pyrazin-4-yl]-3,3a,4,5,6,6a-hexahydro-1H-cyclopenta[c]pyrrol-2-yl]prop-2-en-1-one], the IC50 lay in the range of 1 to 10 nM in test [1] and 1000 to 10000 nM in test [2].

Consider `C=CC(=O)N1CC2CC(c3cc(-c4cnn(C)c4)cn4nccc34)CC2C1` (centres unmarked) [Example 3, 1-[5-[6-(1-methylpyrazol-4-yl)pyrazolo[1,5-a]pyridin-4-yl]-3,3a,4,5,6,6a-hexahydro-1H-cyclopenta[c]pyrrol-2-yl]prop-2-en-1-one], for which the IC50 was less than 1 nM in test [1] and less than 1000 nM in test [2]. The corresponding values for `C=CC(=O)N1CCC(c2nc(-c3cnn(C)c3)cn3nccc23)CC1` [Example 4, 1-[4-[6-(1-methylpyrazol-4-yl)pyrazolo[1,5-a]pyrazin-4-yl]-1-piperidyl]prop-2-en-1-one] are 1 to 10 nM and 1000 to 10000 nM.

Regarding `C=CC(=O)N1CCCC(c2nc(-c3cnn(C)c3)cn3nccc23)C1` (centres unmarked) [Example 5, 1-[3-[6-(1-methylpyrazol-4-yl)pyrazolo[1,5-a]pyrazin-4-yl]-1-piperidyl]prop-2-en-1-one], the IC50 in test [1] lay within 10 to 1000 nM. Consider `C=CC(=O)N1CCCC(c2nc(-c3cnn(C)c3)cn3nccc23)CC1` (centres unmarked) [Example 6, 1-[4-[6-(1-methylpyrazol-4-yl)pyrazolo[1,5-a]pyrazin-4-yl]azepan-1-yl]prop-2-en-1-one], for which the half-inhibitory concentration (IC50) fell in the range of 10 to 1000 nM in test [1] and 1000 to 10000 nM in test [2].

For the molecule `C=CC(=O)N1CCC(c2nc(-c3cnn(C)c3)cn3ncc(F)c23)CC1` [Example 7, 1-[4-[3-fluoro-6-(1-methylpyrazol-4-yl)pyrazolo[1,5-a]pyrazin-4-yl]-1-piperidyl]prop-2-en-1-one], the IC50 in test [1] is 1 to 10 nM; in test [2], less than 1000 nM. In the same order, the values of `C=CC(=O)N1CCC(c2cc(-c3cnn(C)c3)cn3nccc23)CC1` [Example 8, 1-[4-[6-(1-methylpyrazol-4-yl)pyrazolo[1,5-a]pyridin-4-yl]-1-piperidyl]prop-2-en-1-one] are 1 to 10 nM and 1000 to 10000 nM.

Regarding `C=CC(=O)N1CC=C(c2nc(-c3cnn(C)c3)cn3ncc(C)c23)CC1` [Example 10, 1-[4-[3-methyl-6-(1-methylpyrazol-4-yl)pyrazolo[1,5-a]pyrazin-4-yl]-3,6-dihydro-2H-pyridin-1-yl]prop-2-en-1-one], in test [1], the half-maximal inhibitory concentration (IC50) was in the range of 10 to 1000 nM. On the same count and under the same terms, the figure for `C=CC(=O)N1CCC(c2nc(-c3cnn(C)c3)cn3nccc23)CC1C` (centres unmarked) [Example 12, 1-[2-methyl-4-[6-(1-methylpyrazol-4-yl)pyrazolo[1,5-a]pyrazin-4-yl]-1-piperidyl]prop-2-en-1-one] is 10 to 1000 nM.

Values taken from patent US20250090524A1, “BTK INHIBITORS” (BIOGEN MA INC., priority 2021, published 2025).
